Patent US6465457B1 (priority 1991, dated 2002)
Where two headings read alike, the source gives them in different places.

Columns and labels:
Assay type in all cases: in vivo
[1] = tested on: Thanatephorus cucumeries (Rice); assay: Foliar fungal disease test on plants: Thanatephorus cucumeries (Rice); conditions: one or two days before inoculation
Protocol: (§1) The compounds were tested against a variety of foliar fungal diseases of plants. The technique employed was as follows.
(§2) The plants were grown in John Innes Potting Compost (No 1 or 2) in 4 cm diameter minipots. The test compounds were formulated either by bead milling with aqueous DISPERSOL T or as a solution in acetone or acetone/ethanol which was diluted to the required concentration immediately before use. […] The sprays were applied to maximum retention and the root drenches to a final concentration equivalent to approximately 40 ppm a.i. in dry soil. TWEEN 20 was added to give a final concentration of 0.05% when the sprays were applied to cereals.
(§3) For most of the tests the compounds were applied to the soil (roots) or to the foliage (by spraying) one or two days before the plant was inoculated with the disease. An exception was the test on Erysiphe graminis in which the plants were inoculated 24 hours before treatment. Foliar pathogens were applied by spray as zoosporangial suspensions onto the leaves of test plants. After inoculation, the plants were put into an appropriate environment to allow infection to proceed and then incubated until the disease was ready for assessment. The period between inoculation and assessment varied from four to fourteen days according to the disease and environment.
(§4) The disease level present (i.e. leaf area covered by actively sporulating disease) on each of the treated plants was recorded using the following assessment scale:
(§5) Each assessment was then expressed as a percentage of the level of disease present on the untreated control plants. This calculated value is referred to as a POCO (Percentage of Control) value. An example of a typical calculation is as follows:
(§6) Disease level on untreated control=90
(§7) Disese level on treated plant=30 [formula]
(§8) This calculated POCO value is then rounded to the nearest of the values in the 9-point assessment scale shown above. In this particular example, the POCO value would be rounded to 30. If the calculated POCO falls exactly mid-way between two of the points, it is rounded to the lower of the two values.

[2] = tested on: Erysiphe graminis tritici (Wheat); assay: Foliar fungal disease test on plants: Erysiphe graminis tritici (Wheat); conditions: 100 ppm a.i. foliar spray or root drench (approx. 40 ppm in dry soil); plants inoculated 24 hours before treatment
Protocol: as §1, §2, §3, §4, §5, §6, §7, §8

[3] = tested on: Plasmopara viticola (Vines); assay: Foliar fungal disease test on plants: Plasmopara viticola (Vines); conditions: one or two days before inoculation
Protocol: as §1, §2, §3, §4, §5, §6, §7, §8

[4] = tested on: Puccinia recondita (Wheat); assay: Foliar fungal disease test on plants: Puccinia recondita (Wheat)
Protocol: as §1
The plants were grown in John Innes Potting Compost (No 1 or 2) in 4 cm diameter minipots. The test compounds were formulated either by bead milling with aqueous DISPERSOL T or as a solution in acetone or acetone/ethanol which was diluted to the required concentration immediately before use. The formulations (100 ppm active ingredient) were sprayed on to the foliage or applied to the roots of the plants in the soil. The sprays were applied to maximum retention and the root drenches to a final concentration equivalent to approximately 40 ppm a.i. in dry soil. TWEEN 20 was added to give a final concentration of 0.05% when the sprays were applied to cereals.
as §3, with “For most of the tests the compounds were applied to the soil (roots) or to the foliage (by spraying) one or two days before the plant was inoculated with the disease.” left out
as §4, §5, §6, §7, §8

Septoria nodorum (Wheat) = assay: Foliar fungal disease test on plants: Septoria nodorum (Wheat); conditions: one or two days before inoculation
Protocol: as §1, §2, §3, §4, §5, §6, §7, §8

[5] = tested on: Pyricularia oryzae (Rice); conditions: one or two days before inoculation
[6] = tested on: Phytophthora infestans (Tomatoes); conditions: one or two days before inoculation
[7] = tested on: Venturia inaequalis (Apples); assay: Foliar fungal disease test on plants: Venturia inaequalis (Apples); conditions: one or two days before inoculation
Protocol: as §1, §2, §3, §4, §5, §6, §7, §8

[8] = 100 ppm a.i. foliar spray or root drench (approx. 40 ppm in dry soil)
[9] = 100 ppm a.i. foliar spray or root drench (approx. 40 ppm in dry soil), one or two days before inoculation
[10] = 100 ppm a.i. foliar spray or root drench, plants inoculated with Puccinia recondita 48 hours before treatment
[11] = 10 ppm foliar spray only, one or two days before inoculation

Row | Compound | POCO (Percentage of Control) disease level, Thanatephorus cucumeries (Rice) [1, 8] | POCO (Percentage of Control) disease level, Erysiphe graminis tritici (Wheat) [2] | POCO (Percentage of Control) disease level, Plasmopara viticola (Vines) [3, 8] | POCO (Percentage of Control) disease level, Puccinia recondita (Wheat) [4, 9] | POCO (Percentage of Control) disease level, Septoria nodorum (Wheat) (Septoria nodorum (Wheat); [8]) | POCO (Percentage of Control) disease level, Pyricularia oryzae (Rice) [5, 8] | POCO (Percentage of Control) disease level, Phytophthora infestans (Tomatoes) [6, 8] | POCO (Percentage of Control) disease level, Puccinia recondita (Wheat) [4, 10] | POCO (Percentage of Control) disease level, Venturia inaequalis (Apples) [7, 8] | POCO (Percentage of Control) disease level, Thanatephorus cucumeries (Rice) ([1]; 10 ppm foliar spray only) | POCO (Percentage of Control) disease level, Plasmopara viticola (Vines) ([3]; 10 ppm foliar spray only) | POCO (Percentage of Control) disease level, Puccinia recondita (Wheat) [4, 11] | POCO (Percentage of Control) disease level, Venturia inaequalis (Apples) ([7]; 10 ppm foliar spray only) | POCO (Percentage of Control) disease level, Septoria nodorum (Wheat) (Septoria nodorum (Wheat); 10 ppm foliar spray only) | POCO (Percentage of Control) disease level, Pyricularia oryzae (Rice) ([5]; 10 ppm foliar spray only) | POCO (Percentage of Control) disease level, Phytophthora infestans (Tomatoes) ([6]; 10 ppm foliar spray only)
1 | COC=C(C(=O)OC)c1ccccc1COC(=O)Nc1cccc(OC)c1 [7 (1)] | 60 (60 = 30.1-60% disease present) | 5 (5 = 3.1-5% disease present) | 60 (60 = 30.1-60% disease present) | 10 (10 = 5.1-10% disease present) | 90 (90 and 94 = 60.1-100% disease present) | 0 (0 = 0% disease present) | 90 (90 and 94 = 60.1-100% disease present) | – | – | – | – | – | – | – | – | –
2 | COC=C(C(=O)OC)c1ccccc1COC(=O)N(C)c1ccccc1[N+](=O)[O-] [15 (2)] | – | – | 0 (0 = 0% disease present) | – | 5 (5 = 3.1-5% disease present) | 0 (0 = 0% disease present) | 60 (60 = 30.1-60% disease present) | 0+ (0 = 0% disease present) | 0 (0 = 0% disease present) | – | – | – | – | – | – | –
3 | COC=C(C(=O)OC)c1ccccc1COC(=S)Nc1ccccc1 [5 (6)] | – | – | – | – | – | – | – | – | – | 0 (0 = 0% disease present) | 90 (90 and 94 = 60.1-100% disease present) | 90 (90 and 94 = 60.1-100% disease present) | 0 (0 = 0% disease present) | 90 (90 and 94 = 60.1-100% disease present) | 60 (60 = 30.1-60% disease present) | 90 (90 and 94 = 60.1-100% disease present)
4 | COC=C(C(=O)OC)c1ccccc1COC(=O)N(C)c1ccccc1C#N [29 (2)] | 30 (30 = 20.1-30% disease present) | 0 (0 = 0% disease present) | 0 (0 = 0% disease present) | – | 30 (30 = 20.1-30% disease present) | 0 (0 = 0% disease present) | – | 20+ (20 and 24 = 10.1-20% disease present) | 0 (0 = 0% disease present) | – | – | – | – | – | – | –
5 | COC=C(C(=O)OC)c1ccccc1COC(=O)N(C)c1cc(F)ccc1F [27 (2)] | 0 (0 = 0% disease present) | – | 0 (0 = 0% disease present) | – | 0 (0 = 0% disease present) | 0 (0 = 0% disease present) | 5 (5 = 3.1-5% disease present) | 0+ (0 = 0% disease present) | 0 (0 = 0% disease present) | – | – | – | – | – | – | –
6 | COC=C(C(=O)OC)c1ccccc1COC(=S)Nc1ccc(Cl)cc1 [11 (6)] | – | – | – | – | – | – | – | – | – | 90 (90 and 94 = 60.1-100% disease present) | 0 (0 = 0% disease present) | 20 (20 and 24 = 10.1-20% disease present) | – | 60 (60 = 30.1-60% disease present) | 20 (20 and 24 = 10.1-20% disease present) | –
7 | COC=C(C(=O)OC)c1ccccc1COC(=O)N(C)c1cccc([N+](=O)[O-])c1F [106 (2)] | 0 (0 = 0% disease present) | 0 (0 = 0% disease present) | 0 (0 = 0% disease present) | – | 30 (30 = 20.1-30% disease present) | – | 60 (60 = 30.1-60% disease present) | 30+ (30 = 20.1-30% disease present) | 0 (0 = 0% disease present) | – | – | – | – | – | – | –
8 | CCN(C(=O)OCc1ccccc1C(=COC)C(=O)OC)c1ccc(F)c(Cl)c1 [104 (3)] | 0 (0 = 0% disease present) | 0 (0 = 0% disease present) | 0 (0 = 0% disease present) | – | 10 (10 = 5.1-10% disease present) | – | 10 (10 = 5.1-10% disease present) | 0+ (0 = 0% disease present) | 0 (0 = 0% disease present) | – | – | – | – | – | – | –
9 | COC=C(C(=O)OC)c1ccccc1COC(=S)Nc1ccc([N+](=O)[O-])cc1 [9 (6)] | 90 (90 and 94 = 60.1-100% disease present) | 90 (90 and 94 = 60.1-100% disease present) | 90 (90 and 94 = 60.1-100% disease present) | 90 (90 and 94 = 60.1-100% disease present) | 90 (90 and 94 = 60.1-100% disease present) | 20 (20 and 24 = 10.1-20% disease present) | – | – | – | – | – | – | – | – | – | –
10 | COC=C(C(=O)OC)c1ccccc1COC(=S)Nc1ccccc1SC [21 (6)] | 0 (0 = 0% disease present) | 3 (3 = 1.1-3% disease present) | 0 (0 = 0% disease present) | 0 (0 = 0% disease present) | 0 (0 = 0% disease present) | 0 (0 = 0% disease present) | – | – | – | – | – | – | – | – | – | –
11 | COC=C(C(=O)OC)c1ccccc1COC(=O)Nc1ccccc1[N+](=O)[O-] [15 (1)] | – | – | 0 (0 = 0% disease present) | – | 0 (0 = 0% disease present) | 5 (5 = 3.1-5% disease present) | 3 (3 = 1.1-3% disease present) | 90+ (90 and 94 = 60.1-100% disease present) | 0 (0 = 0% disease present) | – | – | – | – | – | – | –
12 | COC=C(C(=O)OC)c1ccccc1COC(=O)Nc1ccccc1C#N [29 (1)] | 5 (5 = 3.1-5% disease present) | 5 (5 = 3.1-5% disease present) | 20 (20 and 24 = 10.1-20% disease present) | – | 60 (60 = 30.1-60% disease present) | 0 (0 = 0% disease present) | – | 30+ (30 = 20.1-30% disease present) | 0 (0 = 0% disease present) | – | – | – | – | – | – | –
13 | COC=C(C(=O)OC)c1ccccc1OC(=O)NCc1ccccc1 [4 (17)] | 0 (0 = 0% disease present) | 10 (10 = 5.1-10% disease present) | 0 (0 = 0% disease present) | 1 (1 = 0.1-1% disease present) | 60 (60 = 30.1-60% disease present) | 5 (5 = 3.1-5% disease present) | – | – | – | – | – | – | – | – | – | –
